Data as given in the NIST ThermoML archive (doi:10.1016/j.fluid.2011.08.020).
Numbers after ± are expanded uncertainties.

Settings: Liquid, Variable volume cell

## CCCCCCCCCCCCCCCCCC [octadecane]
323.65 K, 7000 kPa
  mass density: 764 ± 8 kg/m3
323.65 K, 14400 kPa
  mass density: 769 ± 8 kg/m3
323.65 K, 28300 kPa
  mass density: 778 ± 8 kg/m3
323.65 K, 42200 kPa
  mass density: 788 ± 8 kg/m3
323.65 K, 55600 kPa
  mass density: 797 ± 8 kg/m3
323.65 K, 68900 kPa
  mass density: 800 ± 8 kg/m3
422.85 K, 7700 kPa
  mass density: 702 ± 7 kg/m3
422.85 K, 15100 kPa
  mass density: 711 ± 7 kg/m3
422.85 K, 29400 kPa
  mass density: 724 ± 7 kg/m3
422.85 K, 42500 kPa
  mass density: 732 ± 7 kg/m3
422.85 K, 56100 kPa
  mass density: 741 ± 7 kg/m3
422.85 K, 73200 kPa
  mass density: 752 ± 8 kg/m3
422.85 K, 84500 kPa
  mass density: 761 ± 8 kg/m3
422.85 K, 110000 kPa
  mass density: 774 ± 8 kg/m3
422.85 K, 138500 kPa
  mass density: 787 ± 8 kg/m3
422.85 K, 171700 kPa
  mass density: 801 ± 8 kg/m3
422.85 K, 206100 kPa
  mass density: 813 ± 8 kg/m3
422.85 K, 235500 kPa
  mass density: 823 ± 8 kg/m3
422.85 K, 255900 kPa
  mass density: 829 ± 8 kg/m3
522.55 K, 15300 kPa
  mass density: 651 ± 7 kg/m3
522.55 K, 29400 kPa
  mass density: 668 ± 7 kg/m3
522.55 K, 43200 kPa
  mass density: 681 ± 7 kg/m3
522.55 K, 56400 kPa
  mass density: 692 ± 7 kg/m3
522.55 K, 70800 kPa
  mass density: 703 ± 7 kg/m3
522.55 K, 84400 kPa
  mass density: 712 ± 7 kg/m3
522.55 K, 110000 kPa
  mass density: 727 ± 7 kg/m3
522.55 K, 137800 kPa
  mass density: 742 ± 7 kg/m3
522.55 K, 170400 kPa
  mass density: 757 ± 8 kg/m3
522.55 K, 205300 kPa
  mass density: 771 ± 8 kg/m3
522.55 K, 235700 kPa
  mass density: 782 ± 8 kg/m3
522.55 K, 257000 kPa
  mass density: 790 ± 8 kg/m3

## CCCCCCCCCCCCCCCCCCCC [eicosane]
323.65 K, 7300 kPa
  mass density: 771 ± 8 kg/m3
323.65 K, 14900 kPa
  mass density: 777 ± 8 kg/m3
323.65 K, 21400 kPa
  mass density: 784 ± 8 kg/m3
323.65 K, 27400 kPa
  mass density: 787 ± 8 kg/m3
323.65 K, 34200 kPa
  mass density: 789 ± 8 kg/m3
422.85 K, 7400 kPa
  mass density: 711 ± 7 kg/m3
422.85 K, 14300 kPa
  mass density: 719 ± 7 kg/m3
422.85 K, 20600 kPa
  mass density: 723 ± 7 kg/m3
422.85 K, 27900 kPa
  mass density: 730 ± 7 kg/m3
422.85 K, 34600 kPa
  mass density: 735 ± 7 kg/m3
422.85 K, 54200 kPa
  mass density: 748 ± 8 kg/m3
422.85 K, 81600 kPa
  mass density: 765 ± 8 kg/m3
422.85 K, 109200 kPa
  mass density: 781 ± 8 kg/m3
422.85 K, 136100 kPa
  mass density: 792 ± 8 kg/m3
422.85 K, 169500 kPa
  mass density: 806 ± 8 kg/m3
422.85 K, 203100 kPa
  mass density: 818 ± 8 kg/m3
422.85 K, 235500 kPa
  mass density: 829 ± 8 kg/m3
422.85 K, 260000 kPa
  mass density: 837 ± 8 kg/m3
522.55 K, 16400 kPa
  mass density: 661 ± 7 kg/m3
522.55 K, 28300 kPa
  mass density: 676 ± 7 kg/m3
522.55 K, 41900 kPa
  mass density: 691 ± 7 kg/m3
522.55 K, 55500 kPa
  mass density: 706 ± 7 kg/m3
522.55 K, 69600 kPa
  mass density: 719 ± 7 kg/m3
522.55 K, 82500 kPa
  mass density: 727 ± 7 kg/m3
522.55 K, 109200 kPa
  mass density: 744 ± 7 kg/m3
522.55 K, 138200 kPa
  mass density: 763 ± 8 kg/m3
522.55 K, 173100 kPa
  mass density: 777 ± 8 kg/m3
522.55 K, 204700 kPa
  mass density: 791 ± 8 kg/m3
522.55 K, 239800 kPa
  mass density: 805 ± 8 kg/m3
522.55 K, 258000 kPa
  mass density: 810 ± 8 kg/m3

## CCCCCCCCCCCCCCCC [hexadecane]
323.65 K, 14900 kPa
  mass density: 758 ± 8 kg/m3
323.65 K, 27900 kPa
  mass density: 769 ± 8 kg/m3
323.65 K, 41500 kPa
  mass density: 779 ± 8 kg/m3
323.65 K, 55500 kPa
  mass density: 787 ± 8 kg/m3
323.65 K, 69400 kPa
  mass density: 792 ± 8 kg/m3
323.65 K, 81300 kPa
  mass density: 799 ± 8 kg/m3
323.65 K, 109700 kPa
  mass density: 807 ± 8 kg/m3
422.85 K, 14100 kPa
  mass density: 700 ± 7 kg/m3
422.85 K, 27900 kPa
  mass density: 713 ± 7 kg/m3
422.85 K, 41200 kPa
  mass density: 724 ± 7 kg/m3
422.85 K, 55500 kPa
  mass density: 734 ± 7 kg/m3
422.85 K, 69800 kPa
  mass density: 743 ± 7 kg/m3
422.85 K, 82800 kPa
  mass density: 750 ± 8 kg/m3
422.85 K, 108800 kPa
  mass density: 765 ± 8 kg/m3
422.85 K, 136900 kPa
  mass density: 778 ± 8 kg/m3
422.85 K, 170700 kPa
  mass density: 792 ± 8 kg/m3
422.85 K, 204300 kPa
  mass density: 804 ± 8 kg/m3
422.85 K, 236500 kPa
  mass density: 815 ± 8 kg/m3
422.85 K, 262300 kPa
  mass density: 823 ± 8 kg/m3
522.55 K, 15100 kPa
  mass density: 643 ± 6 kg/m3
522.55 K, 27100 kPa
  mass density: 660 ± 7 kg/m3
522.55 K, 42000 kPa
  mass density: 675 ± 7 kg/m3
522.55 K, 55400 kPa
  mass density: 687 ± 7 kg/m3
522.55 K, 69100 kPa
  mass density: 698 ± 7 kg/m3
522.55 K, 82100 kPa
  mass density: 707 ± 7 kg/m3
522.55 K, 107900 kPa
  mass density: 723 ± 7 kg/m3
522.55 K, 135800 kPa
  mass density: 738 ± 7 kg/m3
522.55 K, 170100 kPa
  mass density: 755 ± 8 kg/m3
522.55 K, 203300 kPa
  mass density: 769 ± 8 kg/m3
522.55 K, 235800 kPa
  mass density: 782 ± 8 kg/m3
522.55 K, 255000 kPa
  mass density: 788 ± 8 kg/m3
